Source: patent publication US8822432B2, “Equol production accelerating composition” (Unitika Ltd., priority 2006, dated 2014)

System: equol production in the intestines
Assay: Equol production accelerating effect in rats: equol concentration in blood plasma after 5 weeks of sample-mixed feed
Format: in vivo, SD rats
Conditions: week 5
Excerpt: Calcium lactobionate (manufactured by Sigma Aldrich) was mixed with a rat powder feed (CRF-1, manufactured by Oriental Yeast Co., Ltd.) to a concentration of 0, 0.5 or 3.0% by weight. Also, as comparative controls, a 1.5% by weight difructose-dianhydride III (DFA-III) (manufactured by Wako Pure Chemical Industries, Ltd)-mixed powder feed and a 1.5% by weight fructo-oligosaccharide (FOS) (manufactured by Wako Pure Chemical Industries, Ltd)-mixed powder feed were used.
Acclimatization rearing of 3 animals per group of 5-week-old SD rats (manufactured by Clea Japan, Inc.) was carried out for 1 week by allowing to freely ingest the powder feed CRF-1 and water. The time of completion of the acclimatization rearing was regarded as the […] Starting from the week 0, respective groups were allowed to freely ingest the calcium lactobionate-mixed powder feed prepared in the above. The control groups were allowed to ingest a general powder feed.
The conjugated soybean isoflavone presenting in the rat blood plasma was converted into its free state using β-glucuronidase, and then equol was measured using an LC/MS/MS system. As the instruments for analysis, HP1100 Series, Agilent Technologies, was used in the LC, and Quattro-Ultima, Micromass was used in the MS/MS. […]

O=C([O-])[C@H](O)[C@@H](O)[C@H](O[C@@H]1O[C@H](CO)[C@H](O)[C@H](O)[C@H]1O)[C@H](O)CO.O=C([O-])[C@H](O)[C@@H](O)[C@H](O[C@@H]1O[C@H](CO)[C@H](O)[C@H](O)[C@H]1O)[C@H](O)CO.[Ca+2] [calcium lactobionate, Calcium lactobionate]
equol concentration in blood plasma, times of the control group (calcium lactobionate-mixed powder feed (0.5 or 3.0% by weight), free ingestion): 2 to 3 times of the control group
equol concentration in blood plasma compared to the DFA-III and fructo-oligosaccharide (mixed powder feed): high
